The test system of data set [1] is resistant strains of P. falciparum. In words: Cross-resistance panel, all mutants/strains tested. It counts as cell-based. The settings on record: Plasmodium falciparum, read-out: antimalarial activity range against all mutants/strains tested. On the procedure:
(§1) Parasite lines used in the study were P. falciparum 3D7 (Pf3D7 Chloroquine-sensitive) and Plasmodium falciparum K1 (PfK1 Chloroquine-resistant) sourced from the Malaria Research and Reference Reagent Resource Center (MR4), ATCC, Manassas, VA, USA. FNDR-10132 was tested against a cross-resistance panel at Swiss TPH, Allschwil, Switzerland.

Data set [2] deals with Plasmodium falciparum K1 (chloroquine-resistant). As to the kind of experiment: Antimalarial assay (IC50 determination), asexual blood stage, SYBR green. It counts as cell-based. The settings on record: read-out: ABS Assay Pf (K1). On the procedure: as §1
(§2) As per the modified protocol stated by Trager and Jensen, 1976, Plasmodium falciparum parasite lines (Pf3D7 and PfK1) were cultured. Plasmodium strains were maintained in RPMI-1640 medium at 3–5% hematocrit supplemented with 0.2% w/v glucose, 0.5% w/v AlbuMaxII, 0.2% w/v NaHCO3, and 30 μg/mL gentamycin, and, additionally, 15 μM hypoxanthine was added and incubated at 37 °C with 5% O2, 5% CO2, and 90% N2. After 24 h, the medium was changed. After attaining high parasitemia (6–8% mature stage parasite), the culture was sub-passaged with fresh human RBCs.
(§3) All tested compounds were dissolved in a DMSO solvent and a prepared stock solution of 10 mM. The reference drug, Chloroquine diphosphate, was dissolved in CRPMI. Working solutions were made from stock solution after diluting in a CRPMI medium during the experiment. The maximum concentration of DMSO used in this study was <1%. It had no parasiticidal effect.
(§4) The P. falciparum (0.8–1% parasitemia and 1% hematocrit) synchronous culture was exposed for 72 h (at 37 °C, 5% O2, 5% CO2, and 90% N2) to the serially diluted compound in 96-well plates. A total of 100 µL of RBCs lytic buffer (5 mM EDTA, 20 mM Tris pH 7.5, 0.08% Triton X-100, and 0.008% Saponin) containing the SYBR green 1-X final concentration was distributed to each well and incubated for one hour at room temp in the dark. The plates were read under a fluorescence reader at an excitation of 485 ± 20 nm and emission of 535 ± 25 nm. The IC50 values were calculated based on the DNA content of the parasite relative to its control. An inhibitory concentration of 50% (IC50) was determined using the MS-EXEL template.

The test system of data set [3] is Plasmodium falciparum 3D7 (chloroquine-sensitive). The data set is described as above. The settings on record: Plasmodium falciparum. It counts as cell-based. The protocol: as §1, §2, §3, §4
The subject of a further data set is Vero cells. As to the kind of experiment: Cytotoxicity assay against Vero cell line. It counts as cell-based. The following applies: 72 h, resazurin (CC50). The protocol: Vero cells were initially washed with PBS and trypsinized, and a 1 × 10^5 cells/mL suspension was prepared. A total of 100 µL of a cell suspension was distributed to each well of the 96-well microtiter plates and allowed to adhere overnight. The next day, serial dilutions of selected test compounds were made in the plates and incubated for 72 h. After 72 h, a ten-microliter resazurin solution (12.5 mg/100 mL PBS) was added to each well. After 3 h, plates were read using a fluorescence reader (Biotek) at an excitation wavelength of 530 nm and an emission wavelength of 590 nm (Sperandeo and Brun, 2003). The MS-EXEL template determined the cytotoxic concentration (CC50) for selected compounds.

The subject of the next data set is Dd2 DSM265 (Pfdhodh). As to the kind of experiment: Cross-resistance panel, Dd2 DSM265. It counts as cell-based, Plasmodium falciparum. On the procedure: as §1
The subject of data set [4] is Dd2 ELQ300 (PfcytB Ile22Leu). As to the kind of experiment: Cross-resistance panel, Dd2 ELQ300. It counts as cell-based, Plasmodium falciparum. On the procedure:
as §1

The subject of another data set is Dd2 (wt). As to the kind of experiment: Cross-resistance panel, Dd2 wt. It counts as cell-based, Plasmodium falciparum. The following applies: strain Dd2 wt. The protocol: as §1

SMILES strings stand for the structures. Like-named read-outs stand apart in the source and are kept apart here.

Consider `CCCCCCc1ccc(-c2cc(=O)c3c(O)c(O)c(O)cc3o2)cc1` [FNDR-10132], for which the IC50 in data set [1] is 200 to 300 nM; in data set [2], 177 nM; in data set [3] (3D7, 72 h, P. falciparum 3D7, 72 h exposure, read-out: IC50) it was 60 nM; in data set [3] (3D7, chloroquine-sensitive 3D7, read-out: ABS Assay Pf (3D7)), 60 nM; in the data set with Dd2 DSM265 (Pfdhodh) (Plasmodium falciparum), 260 nM; in data set [4] (Plasmodium falciparum, DD2) it was 238 nM. Also, the IC50 with Dd2 (wt) (Plasmodium falciparum) is 328 nM. Further, in the data set with Vero cells, the “Cytotoxicity Vero Cell” value came to 174 µM. For the same compound, the “Fold shift IC50 rel. Dd2” value with Dd2 DSM265 (Pfdhodh) (strain Dd2 DSM265) worked out at 0.8; in data set [4] (strain Dd2 ELQ300), 0.7; in the data set with Dd2 (wt), 1.0.

The values above are taken from PMC10610289, “Novel Baicalein-Derived Inhibitors of Plasmodium falciparum” (Pathogens, 2023).
